According to ChEMBL document CHEMBL4342477, “Single Nucleotide Polymorphisms in the Melanocortin His-Phe-Arg-Trp Sequences Decrease Tetrapeptide Potency and Efficacy” (ACS Med Chem Lett, 2020):
Non-standard residues stand in square brackets, D forms with d. Residues, ends and D or L forms follow the SMILES beside them.

Legend:
Format in all cases: functional, cell-based
[1] = molecular target: T1, Melanocyte-stimulating hormone receptor (Mus musculus, UniProt Q01727); experiment: Agonist activity at mouse melanocortin receptor 1 expressed in HEK293 cells assessed as stimulation of cAMP accumulation incubated for 2 hrs by cAMP AlphaScreen assay
T1 sequence (Q01727 whole entry): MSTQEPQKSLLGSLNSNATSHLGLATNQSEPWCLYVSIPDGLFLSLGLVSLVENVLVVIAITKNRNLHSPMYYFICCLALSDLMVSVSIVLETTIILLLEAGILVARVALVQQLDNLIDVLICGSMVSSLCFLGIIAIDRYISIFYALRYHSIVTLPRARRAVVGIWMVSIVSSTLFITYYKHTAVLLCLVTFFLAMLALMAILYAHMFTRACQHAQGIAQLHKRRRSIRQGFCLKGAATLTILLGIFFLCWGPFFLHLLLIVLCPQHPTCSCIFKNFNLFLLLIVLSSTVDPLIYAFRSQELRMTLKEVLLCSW

Melanocortin receptor 3 = Melanocortin receptor 3 (Mus musculus, UniProt P33033); experiment: Agonist activity at mouse melanocortin receptor 3 expressed in HEK293 cells assessed as stimulation of cAMP accumulation incubated for 2 hrs by cAMP Alpha-screen assay
Chain of Melanocortin receptor 3 (P33033 whole entry): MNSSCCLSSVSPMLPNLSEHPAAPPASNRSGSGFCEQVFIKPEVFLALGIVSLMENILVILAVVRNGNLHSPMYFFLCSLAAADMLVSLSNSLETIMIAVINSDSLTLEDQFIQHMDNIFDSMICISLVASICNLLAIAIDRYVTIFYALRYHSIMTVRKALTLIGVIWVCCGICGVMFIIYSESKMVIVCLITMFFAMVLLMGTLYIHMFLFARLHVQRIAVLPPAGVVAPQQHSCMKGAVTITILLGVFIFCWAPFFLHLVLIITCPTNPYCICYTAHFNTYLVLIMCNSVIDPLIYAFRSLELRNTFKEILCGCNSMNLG

[2] = molecular target: Melanocortin receptor 3 (Mus musculus) (UniProt P33033); experiment: Partial agonist activity at mouse melanocortin receptor 3 expressed in HEK293 cells assessed as stimulation of cAMP accumulation incubated for 2 hrs by cAMP Alpha-screen assay relative to NDP-MSH
Chain of Melanocortin receptor 3 (Mus musculus) (P33033 whole entry): as above

Melanocortin receptor 4 = Melanocortin receptor 4 (Mus musculus, UniProt P56450); experiment: Agonist activity at mouse melanocortin receptor 4 expressed in HEK293 cells assessed as stimulation of cAMP accumulation incubated for 2 hrs by cAMP Alpha-screen assay
Chain of Melanocortin receptor 4 (P56450 whole entry): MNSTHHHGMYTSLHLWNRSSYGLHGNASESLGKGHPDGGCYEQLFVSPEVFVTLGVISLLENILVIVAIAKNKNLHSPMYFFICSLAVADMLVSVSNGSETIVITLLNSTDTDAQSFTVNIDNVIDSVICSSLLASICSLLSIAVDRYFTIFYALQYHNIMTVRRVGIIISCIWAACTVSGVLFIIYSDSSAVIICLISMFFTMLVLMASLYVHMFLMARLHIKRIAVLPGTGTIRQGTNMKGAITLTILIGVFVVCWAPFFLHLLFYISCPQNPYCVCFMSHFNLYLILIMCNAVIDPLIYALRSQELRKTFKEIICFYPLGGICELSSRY

[3] = molecular target: Melanocortin receptor 4 (Mus musculus) (UniProt P56450); experiment: Partial agonist activity at mouse melanocortin receptor 4 expressed in HEK293 cells assessed as stimulation of cAMP accumulation incubated for 2 hrs by cAMP Alpha-screen assay relative to NDP-MSH
Chain of Melanocortin receptor 4 (Mus musculus) (P56450 whole entry): as above

Melanocortin receptor 5 = Melanocortin receptor 5 (Mus musculus, UniProt P41149); experiment: Agonist activity at mouse melanocortin receptor 5 expressed in HEK293 cells assessed as stimulation of cAMP accumulation incubated for 2 hrs by cAMP Alpha-screen assay
Chain of Melanocortin receptor 5 (P41149 whole entry): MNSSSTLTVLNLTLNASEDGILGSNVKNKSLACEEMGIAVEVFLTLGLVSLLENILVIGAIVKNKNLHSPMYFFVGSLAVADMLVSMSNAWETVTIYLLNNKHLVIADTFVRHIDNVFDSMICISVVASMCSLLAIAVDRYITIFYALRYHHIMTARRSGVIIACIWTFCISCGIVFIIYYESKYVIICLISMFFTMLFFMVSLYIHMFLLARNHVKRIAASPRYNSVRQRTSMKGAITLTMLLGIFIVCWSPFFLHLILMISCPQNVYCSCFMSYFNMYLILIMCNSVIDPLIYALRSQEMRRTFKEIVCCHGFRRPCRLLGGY

[4] = molecular target: Melanocortin receptor 4 (Mus musculus) (UniProt P56450); experiment: Agonist activity at mouse melanocortin receptor 4 expressed in HEK293 cells assessed as fold decrease in potency of stimulation of cAMP accumulation incubated for 2 hrs by cAMP Alpha-screen assay relative to Ac-His-DPhe-Arg-Trp-NH2
[5] = molecular target: Melanocortin receptor 3 (Mus musculus) (UniProt P33033); experiment: Agonist activity at mouse melanocortin receptor 3 expressed in HEK293 cells assessed as stimulation of cAMP accumulation at 100 uM incubated for 2 hrs by cAMP Alpha-screen assay relative to control
[6] = molecular target: Melanocortin receptor 5 (Mus musculus) (UniProt P41149); experiment: Agonist activity at mouse melanocortin receptor 5 expressed in HEK293 cells assessed as stimulation of cAMP accumulation at 100 uM incubated for 2 hrs by cAMP Alpha-screen assay relative to control
Chain of Melanocortin receptor 5 (Mus musculus) (P41149 whole entry): as above

[7] = molecular target: T1, Melanocyte-stimulating hormone receptor; experiment: Agonist activity at mouse melanocortin receptor 1 expressed in HEK293 cells assessed as stimulation of cAMP accumulation incubated for 6 hrs by beta-galactosidase cAMP assay
[8] = molecular target: Melanocortin receptor 5 (Mus musculus) (UniProt P41149); experiment: Partial agonist activity at mouse melanocortin receptor 5 expressed in HEK293 cells assessed as stimulation of cAMP accumulation incubated for 2 hrs by cAMP Alpha-screen assay relative to NDP-MSH
[9] = molecular target: Melanocortin receptor 4 (Mus musculus) (UniProt P56450); experiment: Agonist activity at mouse melanocortin receptor 4 expressed in HEK293 cells assessed as fold decrease in potency of stimulation of cAMP accumulation incubated for 2 hrs by cAMP Alpha-screen assay
[10] = molecular target: Melanocyte-stimulating hormone receptor (Mus musculus) (UniProt Q01727); experiment: Agonist activity at mouse melanocortin receptor 1 expressed in HEK293 cells assessed as fold decrease in potency of stimulation of cAMP accumulation incubated for 2 hrs by cAMP AlphaScreen assay
Chain of Melanocyte-stimulating hormone receptor (Mus musculus) (Q01727 whole entry, looked up): as the sequence (Q01727 whole entry) above

[11] = molecular target: Melanocyte-stimulating hormone receptor (Mus musculus) (UniProt Q01727); experiment: Agonist activity at mouse melanocortin receptor 1 expressed in HEK293 cells assessed as stimulation of cAMP accumulation at 100 uM incubated for 2 hrs by cAMP AlphaScreen assay relative to control

Structure (SMILES) | EC50 [1] | EC50 (Melanocortin receptor 3) | EC50 (Melanocortin receptor 4) | EC50 (Melanocortin receptor 5) | further results
CC(=O)N[C@@H](Cc1cnc[nH]1)C(=O)N[C@H](Cc1ccccc1)C(=O)N[C@@H](CCCNC(=N)N)C(=O)N[C@@H](CO)C(N)=O | 1600 nM | – | > 100000 nM | – | Emax [5]: 50%; Emax [6]: 75%
CC(=O)N[C@@H](Cc1cnc[nH]1)C(=O)N[C@H](C(=O)N[C@@H](CCCNC(=N)N)C(=O)N[C@@H](Cc1c[nH]c2ccccc12)C(N)=O)C(C)C (Ac-HVRW-NH2) | > 100000 nM | > 100000 nM | > 100000 nM | > 100000 nM | –
CC(=O)N[C@@H](Cc1cnc[nH]1)C(=O)N[C@H](Cc1ccccc1)C(=O)N[C@@H](CCCNC(=N)N)C(=O)N[C@@H](Cc1c[nH]c2ccccc12)C(N)=O | – | – | – | – | Emax [5]: 30%
CC(=O)N[C@@H](Cc1cnc[nH]1)C(=O)N[C@@H](CC(C)C)C(=O)N[C@@H](CCCNC(=N)N)C(=O)N[C@@H](Cc1c[nH]c2ccccc12)C(N)=O (Ac-HLRW-NH2) | – | > 100000 nM | > 100000 nM | – | Emax [11]: 25%; Emax [6]: 25%
CC(=O)N[C@@H](Cc1cnc[nH]1)C(=O)N[C@H](Cc1ccccc1)C(=O)N[C@@H](CCCNC(=N)N)C(=O)N[C@@H](CCCNC(=N)N)C(N)=O | 900 nM | > 100000 nM | > 100000 nM | – | Emax [6]: 20%
CC(=O)N[C@@H](Cc1c[nH]cn1)C(=O)N[C@@H](Cc1ccccc1)C(=O)N[C@@H](CCCN=C(N)N)C(=O)N[C@@H](Cc1c[nH]c2ccccc12)C(N)=O | – | – | – | 220 nM | –

Now from value to molecule, other results behind:

EC50 [1] | EC50 (Melanocortin receptor 3) | EC50 (Melanocortin receptor 4) | EC50 (Melanocortin receptor 5) | Structure (SMILES) | further results
1600 nM | 1300 nM | 270 nM | 270 nM | CC(=O)N[C@@H](CCC(N)=O)C(=O)N[C@H](Cc1ccccc1)C(=O)N[C@@H](CCCNC(=N)N)C(=O)N[C@@H](Cc1c[nH]c2ccccc12)C(N)=O | Emax [2]: 80%; Emax [3]: 80%; fold change (FC) [4]: 10
1600 nM | – | > 100000 nM | – | CC(=O)N[C@@H](Cc1cnc[nH]1)C(=O)N[C@H](Cc1ccccc1)C(=O)N[C@@H](CCCNC(=N)N)C(=O)N[C@@H](CC(C)C)C(N)=O | Emax [5]: 20%; Emax [6]: 40%
– | – | 21 nM | 11 nM | CC(=O)N[C@@H](Cc1cnc[nH]1)C(=O)N[C@H](Cc1ccccc1)C(=O)N[C@@H](CCCN=C(N)N)C(=O)N[C@@H](Cc1c[nH]c2ccccc12)C(N)=O | –
2100 nM | – | 1000 nM | 2000 nM | CC(=O)N1CCC[C@H]1C(=O)N[C@H](Cc1ccccc1)C(=O)N[C@@H](CCCN=C(N)N)C(=O)N[C@@H](Cc1c[nH]c2ccccc12)C(N)=O (Ac-P[dF]RW-NH2) | EC50 [7]: 4000 nM; Emax [3]: 60%; Emax [8]: 80%
1200 nM | 3000 nM | 90 nM | 400 nM | CC(=O)N[C@@H](Cc1ccc(O)cc1)C(=O)N[C@H](Cc1ccccc1)C(=O)N[C@@H](CCCNC(=N)N)C(=O)N[C@@H](Cc1c[nH]c2ccccc12)C(N)=O (Ac-Y[dF]RW-NH2) | Emax [2]: 50%; Emax [3]: 65%; Emax [8]: 80%
1300 nM | > 100000 nM | > 100000 nM | > 100000 nM | CC(=O)N[C@@H](Cc1cnc[nH]1)C(=O)N[C@H](Cc1ccccc1)C(=O)N[C@@H](CCCNC(=N)N)C(=O)NCC(N)=O | –
1300 nM | 4000 nM | 500 nM | 300 nM | CC(=O)N[C@@H](Cc1cnc[nH]1)C(=O)N[C@H](Cc1ccccc1)C(=O)N[C@@H](Cc1cnc[nH]1)C(=O)N[C@@H](Cc1c[nH]c2ccccc12)C(N)=O | Emax [2]: 85%
400 nM | 6000 nM | 3100 nM | 1700 nM | CC(=O)N[C@@H](Cc1cnc[nH]1)C(=O)N[C@H](Cc1ccccc1)C(=O)N[C@@H](CS)C(=O)N[C@@H](Cc1c[nH]c2ccccc12)C(N)=O | Emax [2]: 85%; fold change (FC) [9]: 140; fold change (FC) [10]: 25
90 nM | – | 3800 nM | 2000 nM | CC(=O)N[C@@H](Cc1cnc[nH]1)C(=O)N[C@H](Cc1ccccc1)C(=O)N[C@@H](CC(C)C)C(=O)N[C@@H](Cc1c[nH]c2ccccc12)C(N)=O | Emax [5]: 25%; Emax [3]: 85%
